# Experimental data from ChEMBL document CHEMBL1671662, “In vitro activities of telavancin and six comparator agents against anaerobic bacterial isolates” (2009).
# Assays:
# Assay type in all cases: functional
# Clostridium tertium = test: Antibacterial activity against Clostridium tertium by CLSI M11-A6 agar dilution method
# Ruminococcus sp. = test: Antibacterial activity against Ruminococcus sp. by CLSI M11-A6 agar dilution method
# Ruminococcus lactaris = test: Antibacterial activity against Ruminococcus lactaris by CLSI M11-A6 agar dilution method
# Clostridium spiroforme = test: Antibacterial activity against Clostridium spiroforme by CLSI M11-A6 agar dilution method; settings: Thomasclavelia spiroformis
# [1] = tested on: Prevotella melaninogenica; test: Antibacterial activity against Prevotella melaninogenica by CLSI M11-A6 agar dilution method
# Parabacteroides merdae = test: Antibacterial activity against Parabacteroides merdae by CLSI M11-A6 agar dilution method
# Flavonifractor plautii = test: Antibacterial activity against Clostridium orbiscindens by CLSI M11-A6 agar dilution method
# Bifidobacterium bifidum = test: Antibacterial activity against Bifidobacterium bifidum by CLSI M11-A6 agar dilution method
# [2] = tested on: Paraclostridium bifermentans; test: Antibacterial activity against Clostridium bifermentans by CLSI M11-A6 agar dilution method
# Prevotella buccae = test: Antibacterial activity against Prevotella buccae by CLSI M11-A6 agar dilution method; settings: Segatella buccae
# Bifidobacterium dentium = test: Antibacterial activity against Bifidobacterium dentium by CLSI M11-A6 agar dilution method
# Prevotella corporis = test: Antibacterial activity against Prevotella corporis by CLSI M11-A6 agar dilution method
# Prevotella disiens = test: Antibacterial activity against Prevotella P disiens by CLSI M11-A6 agar dilution method
# Anaerococcus tetradius = test: Antibacterial activity against Anaerococcus tetradius by CLSI M11-A6 agar dilution method
# [3] = tested on: Catenibacterium mitsuokai; test: Antibacterial activity against Catenibacterium mitsuokai by CLSI M11-A6 agar dilution method
# Clostridium butyricum = test: Antibacterial activity against Clostridium butyricum by CLSI M11-A6 agar dilution method
# Prevotella intermedia = test: Antibacterial activity against Prevotella intermedia by CLSI M11-A6 agar dilution method
# [4] = tested on: Ruminococcus flavefaciens; test: Antibacterial activity against Ruminococcus flavefaciens by CLSI M11-A6 agar dilution method
# [5] = tested on: Clostridium celerecrescens; test: Antibacterial activity against Clostridium celerecrescens by CLSI M11-A6 agar dilution method; settings: Lacrimispora celerecrescens
# [Clostridium] innocuum = Antibacterial activity against Clostridium innocuum by CLSI M11-A6 agar dilution method
# Clostridium perfringens = test: Antibacterial activity against Clostridium perfringens by CLSI M11-A6 agar dilution method
# [6] = tested on: Paeniclostridium sordellii; test: Antibacterial activity against Clostridium sordellii by CLSI M11-A6 agar dilution method; settings: Paraclostridium sordellii
# Ruminococcus gnavus = test: Antibacterial activity against Ruminococcus gnavus by CLSI M11-A6 agar dilution method; settings: Mediterraneibacter gnavus
# [7] = tested on: Streptococcus constellatus; test: Antibacterial activity against Streptococcus constellatus by CLSI M11-A6 agar dilution method
# [8] = tested on: Bacteroides thetaiotaomicron; test: Antibacterial activity against Bacteroides thetaiotaomicron by CLSI M11-A6 agar dilution method
# Bifidobacterium longum = test: Antibacterial activity against Bifidobacterium longum by CLSI M11-A6 agar dilution method
# Clostridium bartlettii = test: Antibacterial activity against Clostridium bartlettii by CLSI M11-A6 agar dilution method; settings: Intestinibacter bartlettii
# [9] = tested on: Peptoniphilus asaccharolyticus; test: Antibacterial activity against Peptoniphilus asaccharolyticus by CLSI M11-A6 agar dilution method
# Ruminococcus torques = test: Antibacterial activity against Ruminococcus torques by CLSI M11-A6 agar dilution method; settings: Mediterraneibacter torques
# Bilophila wadsworthia = test: Antibacterial activity against Bilophila wadsworthia by CLSI M11-A6 agar dilution method
# Bifidobacterium breve = test: Antibacterial activity against Bifidobacterium breve by CLSI M11-A6 agar dilution method
# Clostridium beijerinckii = test: Antibacterial activity against Clostridium beijerinckii by CLSI M11-A6 agar dilution method
# Parvimonas micra = test: Antibacterial activity against Peptostreptococcus micros by CLSI M11-A6 agar dilution method
# [10] = tested on: Streptococcus intermedius; test: Antibacterial activity against Streptococcus intermedius by CLSI M11-A6 agar dilution method
# [11] = tested on: Propionibacterium propionicum; test: Antibacterial activity against Propionibacterium propionicus by CLSI M11-A6 agar dilution method; settings: Arachnia propionica
# Clostridium leptum = test: Antibacterial activity against Clostridium leptum by CLSI M11-A6 agar dilution method
# Phocaeicola vulgatus = test: Antibacterial activity against Bacteroides vulgatus by CLSI M11-A6 agar dilution method
# Bacteroides fragilis = test: Antibacterial activity against Bacteroides fragilis by CLSI M11-A6 agar dilution method
# [12] = tested on: Peptostreptococcus anaerobius; test: Antibacterial activity against Peptostreptococcus anaerobius by CLSI M11-A6 agar dilution method
# [13] = tested on: Enterocloster clostridioformis; test: Antibacterial activity against Clostridium clostridioforme by CLSI M11-A6 agar dilution method
# Clostridium glycolicum = test: Antibacterial activity against Clostridium glycolicum by CLSI M11-A6 agar dilution method; settings: Terrisporobacter glycolicus
# Clostridium scindens = test: Antibacterial activity against Clostridium scindens by CLSI M11-A6 agar dilution method
# Odoribacter splanchnicus = test: Antibacterial activity against Bacteroides splanchnicus by CLSI M11-A6 agar dilution method
structure (smiles),measurement,setting,value
CN[C@H](CC(C)C)C(=O)N[C@H]1C(=O)N[C@@H](CC(N)=O)C(=O)N[C@H]2C(=O)N[C@H]3C(=O)N[C@H](C(=O)N[C@H](C(=O)O)c4cc(O)cc(O)c4-c4cc3ccc4O)[C@H](O)c3ccc(c(Cl)c3)Oc3cc2cc(c3O[C@@H]2O[C@H](CO)[C@@H](O)[C@H](O)[C@H]2O[C@H]2C[C@](C)(N)[C@H](O)[C@H](C)O2)Oc2ccc(cc2Cl)[C@H]1O [VANCOMYCIN],MIC50,Clostridium tertium,1 µg/mL
same,MIC90,Clostridium tertium,4 µg/mL
same,MIC50,Ruminococcus sp.,0.5 µg/mL
same,MIC90,Ruminococcus sp.,1 µg/mL
same,MIC50,Ruminococcus lactaris,0.5 µg/mL
same,MIC90,Ruminococcus lactaris,1 µg/mL
same,MIC50,Clostridium spiroforme,1 µg/mL
same,MIC90,Clostridium spiroforme,4 µg/mL
same,MIC50,[1],32 µg/mL
same,MIC90,[1],> 128 µg/mL
same,MIC50,Parabacteroides merdae,128 µg/mL
same,MIC90,Parabacteroides merdae,128 µg/mL
same,MIC50,Flavonifractor plautii,1 µg/mL
same,MIC90,Flavonifractor plautii,4 µg/mL
same,MIC50,Bifidobacterium bifidum,0.5 µg/mL
same,MIC90,Bifidobacterium bifidum,4 µg/mL
same,MIC50,[2],1 µg/mL
same,MIC90,[2],4 µg/mL
same,MIC50,Prevotella buccae,32 µg/mL
same,MIC90,Prevotella buccae,> 128 µg/mL
same,MIC50,Bifidobacterium dentium,0.5 µg/mL
same,MIC90,Bifidobacterium dentium,4 µg/mL
same,MIC50,Prevotella corporis,32 µg/mL
same,MIC90,Prevotella corporis,> 128 µg/mL
same,MIC50,Prevotella disiens,32 µg/mL
same,MIC90,Prevotella disiens,> 128 µg/mL
same,MIC50,Anaerococcus tetradius,0.5 µg/mL
same,MIC90,Anaerococcus tetradius,1 µg/mL
same,MIC50,[3],0.5 µg/mL
same,MIC90,[3],4 µg/mL
same,MIC50,Clostridium butyricum,1 µg/mL
same,MIC90,Clostridium butyricum,4 µg/mL
same,MIC50,Prevotella intermedia,32 µg/mL
same,MIC90,Prevotella intermedia,> 128 µg/mL
same,MIC50,[4],0.5 µg/mL
same,MIC90,[4],1 µg/mL
same,MIC50,[5],1 µg/mL
same,MIC90,[5],4 µg/mL
same,MIC,[Clostridium] innocuum,16 µg/mL
same,MIC50,[Clostridium] innocuum,16 µg/mL
same,MIC90,[Clostridium] innocuum,16 µg/mL
same,MIC,Clostridium perfringens,0.5 µg/mL
same,MIC50,Clostridium perfringens,0.5 µg/mL
same,MIC90,Clostridium perfringens,1 µg/mL
same,MIC50,[6],1 µg/mL
same,MIC90,[6],4 µg/mL
same,MIC50,Ruminococcus gnavus,0.5 µg/mL
same,MIC90,Ruminococcus gnavus,1 µg/mL
same,MIC50,[7],2 µg/mL
same,MIC90,[7],2 µg/mL
same,MIC50,[8],> 128 µg/mL
same,MIC90,[8],> 128 µg/mL
same,MIC50,Bifidobacterium longum,0.5 µg/mL
same,MIC90,Bifidobacterium longum,4 µg/mL
same,MIC50,Clostridium bartlettii,1 µg/mL
same,MIC90,Clostridium bartlettii,4 µg/mL
same,MIC50,[9],0.5 µg/mL
same,MIC90,[9],1 µg/mL
same,MIC50,Ruminococcus torques,0.5 µg/mL
same,MIC90,Ruminococcus torques,1 µg/mL
same,MIC,Bilophila wadsworthia,> 128 µg/mL
same,MIC50,Bilophila wadsworthia,> 128 µg/mL
same,MIC90,Bilophila wadsworthia,> 128 µg/mL
same,MIC50,Bifidobacterium breve,0.5 µg/mL
same,MIC90,Bifidobacterium breve,4 µg/mL
same,MIC50,Clostridium beijerinckii,1 µg/mL
same,MIC90,Clostridium beijerinckii,4 µg/mL
same,MIC50,Parvimonas micra,0.5 µg/mL
same,MIC90,Parvimonas micra,1 µg/mL
same,MIC50,[10],2 µg/mL
same,MIC90,[10],2 µg/mL
same,MIC50,[11],0.5 µg/mL
same,MIC90,[11],4 µg/mL
same,MIC50,Clostridium leptum,1 µg/mL
same,MIC90,Clostridium leptum,4 µg/mL
same,MIC50,Phocaeicola vulgatus,64 µg/mL
same,MIC90,Phocaeicola vulgatus,128 µg/mL
same,MIC50,Bacteroides fragilis,64 µg/mL
same,MIC90,Bacteroides fragilis,64 µg/mL
same,MIC50,[12],0.5 µg/mL
same,MIC90,[12],1 µg/mL
same,MIC50,[13],2 µg/mL
same,MIC90,[13],2 µg/mL
same,MIC50,Clostridium glycolicum,1 µg/mL
same,MIC90,Clostridium glycolicum,4 µg/mL
same,MIC50,Clostridium scindens,1 µg/mL
same,MIC90,Clostridium scindens,4 µg/mL
same,MIC50,Odoribacter splanchnicus,128 µg/mL
same,MIC90,Odoribacter splanchnicus,> 128 µg/mL
